# Test results reported in patent US20240226048A1, “METHODS OF TREATMENT USING BEMPEDOIC ACID” (Esperion Therapeutics, Inc., priority 2023, published 2024).
# Assay: CLEAR OUTCOMES trial: time-to-event cardiovascular efficacy end points
# Assay type: in vivo, human
# Details: for Primary efficacy endpoint (MACE-4), Hazard Ratio (95% CI): Cox proportional hazards, P 0.004; for Fatal and non-fatal MI, Hazard Ratio (95% CI): P 0.002; for 3-component MACE, Hazard Ratio (95% CI): P 0.006
# Description: The CLEAR OUTCOMES trial was a randomized, placebo-controlled, double-blind trial that enrolled patients at 1250 sites in 32 countries. An independent Data Monitoring Committee reviewed safety and efficacy data during the trial.
# Patients 18 to 85 years of age were eligible for enrollment if they met either of two criteria for increased cardiovascular risk, a prior cardiovascular event (secondary prevention) or clinical features that placed them at high risk for a cardiovascular event (primary prevention). (Nicholls S, Lincoff A M, Bays H E, et al. Rationale and design of the CLEAR-outcomes trial: Evaluating the effect of bempedoic acid on cardiovascular events in patients with statin intolerance. Am Heart J. 2021 May; 235: 104-112) All patients provided written informed consent. Patients had to report statin intolerance due to an adverse effect that started or increased during statin therapy and resolved or improved after statin therapy was discontinued. Patients could be enrolled if they tolerated a very low average daily statin dose (e.g., an average daily dose of rosuvastatin <5 mg, atorvastatin <10 mg, simvastatin <10 mg, lovastatin <20 mg, pravastatin <40 mg, fluvastatin <40 mg, or pitavastatin <2 mg). Other lipid-lowering therapies were permitted, including ezetimibe, niacin, bile acid resins, fibrates, and/or proprotein convertase subtilisin kexin type 9 (PCSK9) inhibitors. Full inclusion and exclusion criteria are provided in Nicholls et al. (Am Heart J. 2021).
# Eligible patients entered a 4-week run-in period during which patients were treated with single-blind placebo. If patients were intolerant to placebo treatment or if adherence was <80% by tablet count, they were not eligible for randomization. Patients who successfully completed the run-in period were randomly assigned in a 1:1 ratio to receive bempedoic acid at an oral dose of 180 mg or matching placebo, administered daily. Beginning 6 months after enrollment, the central laboratory notified the investigator if the patient's LDL-cholesterol level was ≥25% higher than baseline. These patients were counseled on healthy dietary guidelines and reminded to take all lipid-regulating medications. If repeat testing confirmed that LDL-cholesterol value met the threshold criteria, the provider could adjust the lipid-lowering treatment regimen per standard of care and local guidelines.
# The primary end point was the first occurrence of a composite of death from cardiovascular causes, nonfatal myocardial infarction (MI), nonfatal stroke, or coronary revascularization. The first key secondary end point was time to the first occurrence of the composite of cardiovascular death, nonfatal stroke or MI. Further key secondary end points included time to first occurrence of each of the following outcomes tested in hierarchical order, fatal or nonfatal MI, coronary revascularization, fatal or nonfatal stroke, death from cardiovascular causes, and all-cause mortality.
# This was an event-driven trial designed to provide at least 90% power to detect a 15% relative risk reduction for the primary composite end point at an overall two-sided significance level of 0.05. The trial required a minimum of 1620 primary composite events with >24 months of follow-up for all patients and at least 810 first key secondary end points. The average treatment duration was estimated to be 42 months and a lost-to-follow-up rate of 1% per year. Assuming a 3.59% annual event rate in the placebo group, enrollment of 12,600 patients was required, subsequently amended to 14,000. There were no interim efficacy analyses. A hierarchical approach was prespecified to evaluate sequentially each of the six key secondary efficacy end points with statistical significance at each step required to test the next hypothesis, thereby preserving the study-wise Type I error rate at 5%. All analyses were based on the intent-to-treat principle. […]
# [1] = prespecified subgroup, interaction P=0.03
# [2] = vs placebo, listed as bempedoic acid
structure (smiles),measurement,setting,value
"CC(C)(CCCCCC(O)CCCCCC(C)(C)C(=O)O)C(=O)O [Bempedoic Acid, Bempedoic acid]","3-component MACE, % of patients","180 mg oral daily, N = 6992",8.2%
same,"5 component MACE, % of patients","180 mg oral daily, N = 6992",11.9%
same,"All-cause mortality, % of patients","180 mg oral daily, N = 6992",6.2%
same,"All-cause mortality, nonfatal MI, nonfatal stroke, or coronary revascularization, % of patients","180 mg oral daily, N = 6992",13.8%
same,"All-cause mortality, nonfatal MI, nonfatal stroke, or coronary revascularization, number of patients","180 mg oral daily, N = 6992",962 number of patients
same,"All-cause mortality, number of patients","180 mg oral daily, N = 6992",434 number of patients
same,"Coronary revascularization, % of patients","180 mg oral daily, N = 6992",6.2%
same,"Coronary revascularization, number of patients","180 mg oral daily, N = 6992",435 number of patients
same,"Death from cardiovascular causes, % of patients","180 mg oral daily, N = 6992",3.8%
same,"Death from cardiovascular causes, number of patients","180 mg oral daily, N = 6992",269 number of patients
same,"Fatal MI, % of patients","180 mg oral daily, N = 6992",0.4%
same,"Fatal MI, number of patients","180 mg oral daily, N = 6992",29 number of patients
same,"Fatal and non-fatal MI, % of patients","180 mg oral daily, N = 6992",3.7%
same,"Fatal and non-fatal MI, number of patients","180 mg oral daily, N = 6992",261 number of patients
same,"Fatal and non-fatal stroke, % of patients","180 mg oral daily, N = 6992",1.9%
same,"Fatal and non-fatal stroke, number of patients","180 mg oral daily, N = 6992",135 number of patients
same,"Fatal and nonfatal hemorrhagic stroke, % of patients","180 mg oral daily, N = 6992",0.3%
same,"Fatal and nonfatal hemorrhagic stroke, number of patients","180 mg oral daily, N = 6992",20 number of patients
same,"Fatal and nonfatal non-hemorrhagic stroke, % of patients","180 mg oral daily, N = 6992",1.7%
same,"Fatal and nonfatal non-hemorrhagic stroke, number of patients","180 mg oral daily, N = 6992",118 number of patients
same,"Fatal stroke, % of patients","180 mg oral daily, N = 6992",0.3%
same,"Fatal stroke, number of patients","180 mg oral daily, N = 6992",18 number of patients
same,"Hospitalization for unstable angina, % of patients","180 mg oral daily, N = 6992",1.3%
same,"Hospitalization for unstable angina, number of patients","180 mg oral daily, N = 6992",91 number of patients
same,"Non-fatal MI, % of patients","180 mg oral daily, N = 6992",3.4%
same,"Non-fatal MI, number of patients","180 mg oral daily, N = 6992",236 number of patients
same,"Non-fatal stroke, % of patients","180 mg oral daily, N = 6992",1.7%
same,"Non-fatal stroke, number of patients","180 mg oral daily, N = 6992",119 number of patients
same,"Primary efficacy endpoint (MACE-4), % of patients","180 mg oral daily, N = 6992, median follow-up 40.6 months",11.7%
same,"5 component MACE, number of patients","MACE-4 or hospitalization for unstable angina (MACE-5), 180 mg oral daily, N = 6992",831 number of patients
same,"effect on other key secondary end points: time to first occurrence of stroke, death from cardiovascular causes, all-cause mortality",compared with placebo,no significant effects
same,"Primary efficacy endpoint (MACE-4), number of patients","death from cardiovascular causes, nonfatal MI, nonfatal stroke, or coronary revascularization, 180 mg oral daily, N = 6992, median follow-up 40.6 months",819 number of patients
same,"3-component MACE, number of patients","death from cardiovascular causes, nonfatal MI, or nonfatal stroke (MACE-3), 180 mg oral daily, N = 6992",575 number of patients
same,"New-onset type 2 diabetes mellitus, number of patients","n/N in patients with baseline glycemic status of no diabetes, 180 mg oral daily",429/3848
same,"New-onset type 2 diabetes mellitus, % of patients","patients with baseline glycemic status of no diabetes, 180 mg oral daily",(11.1) %
same,"HR for the primary end point, primary prevention population",[1],0.68
same,"HR for the primary end point, secondary prevention population",[1],0.91
same,"5 component MACE, Hazard Ratio (95% CI)",vs placebo,0.86 (0.78-0.94)
same,"All-cause mortality, Hazard Ratio (95% CI)",vs placebo,1.03 (0.90-1.18)
same,"All-cause mortality, nonfatal MI, nonfatal stroke, or coronary revascularization, Hazard Ratio (95% CI)",vs placebo,0.89 (0.82-0.97)
same,"Death from cardiovascular causes, Hazard Ratio (95% CI)",vs placebo,1.04 (0.88-1.24)
same,"Fatal MI, Hazard Ratio (95% CI)",vs placebo,1.38 (0.79-2.42)
same,"Fatal and non-fatal stroke, Hazard Ratio (95% CI)",vs placebo,0.85 (0.67-1.07)
same,"Fatal and nonfatal hemorrhagic stroke, Hazard Ratio (95% CI)",vs placebo,2.21 (1.01-4.85)
same,"Fatal and nonfatal non-hemorrhagic stroke, Hazard Ratio (95% CI)",vs placebo,0.78 (0.61-0.99)
same,"Fatal stroke, Hazard Ratio (95% CI)",vs placebo,1.12 (0.57-2.20)
same,"Hospitalization for unstable angina, Hazard Ratio (95% CI)",vs placebo,0.66 (0.50-0.86)
same,"Non-fatal stroke, Hazard Ratio (95% CI)",vs placebo,0.82 (0.64-1.05)
same,reduction in coronary revascularization,vs placebo,19%
same,"reduction in the composite of death from cardiovascular causes, stroke or MI",vs placebo,15%
same,reduction in the incidence of fatal or nonfatal MI,vs placebo,23%
same,"reduction in the primary composite end point (death from cardiovascular causes, stroke, MI, or coronary revascularization)",vs placebo,13%
same,"Primary efficacy endpoint (MACE-4), Hazard Ratio (95% CI)",vs placebo,0.87 (0.79-0.96)
same,"Primary efficacy endpoint (MACE-4), Hazard Ratio (95% CI)",[2],0.87
same,"Coronary revascularization, Hazard Ratio (95% CI)","vs placebo, P 0.001",0.81
same,"Fatal and non-fatal MI, Hazard Ratio (95% CI)",vs placebo,0.77 (0.66-0.91)
same,"Fatal and non-fatal MI, Hazard Ratio (95% CI)",[2],0.77
same,"3-component MACE, Hazard Ratio (95% CI)",vs placebo,0.85 (0.76-0.96)
same,"3-component MACE, Hazard Ratio (95% CI)",[2],0.85
same,"New-onset type 2 diabetes mellitus, Hazard Ratio (95% CI)","vs placebo, patients with no diabetes at baseline",0.95 (0.83-1.09)
